Tests used:
Mentha arvensis = assay: Growth promoting activity with Mentha arvensis internode explants; assay type: in vivo
Experimental: To confirm the growth promoting activity of methanone-(3′,4′,5′-trimethoxy) phenyl, 1-naphthyl, 2-O-4″-ethyl but-2″-enoate, it was tested with a medicinal and aromatic plant species Mentha arvensis. The explants used were 0.5 cm long pieces of the second and third internodes of the shoots formed from axillary buds and culture. The internode segments were inoculated in MS basal media (Murashige and Skoog, 1962, Physiol. Planta. 15: pp. 473 to 497) containing vitamins 100 μg/ml, myo-inositol 3%, w/v, sucrose 1.5% w/v, Agar and different concentrations of auxins and cytokinin. Different concentrations of 1-naphthalene acetic acid (NM) (0.0, 0.2, 2.0 μg/ml) were used in combination with different concentrations of 6 benzyl amino purine (BAP) (0, 10 & 5 μg/ml). On each kind of media […] of the explants were inoculated into three petriplates with each plates containing 4 explants. Compound 1 was serially replaced with each concentration of NM and BAP individually to observe its growth promoting activity. The experiment was arranged in the form of a completely randomized design (CRD).
Cultures were maintained at 25±2° C. and 400 to 600 lux light intensity with 16 h photoperiod. The response of explants was recorded every 24 h over 4 week periods. […] The proportional increase in biomass was recorded by taking the fresh weight of the growing tissue during sub culturing and dividing the increase with the initial weight.
At the end of 12 weeks from inoculation the shoots were separated and individually transferred to MS basal media containing vitamins for rooting. The rooted plantlets were subsequently transferred to pods in a green house.
The basal medium for studying the response was MS 0 (Murashige and Skoog, 1962, Physiol. Planta. 15: pp. 473 to 497) supplemented with 0.2 mg/L IAA (indole acetic acid) and 5 mg/L BAP (benzene amino purine).
The basal medium for studying the response was MS 0 (Murashige and Skoog, 1962, Physiol. Planta. 15: pp. 473 to 497) supplemented with 2mg/L IAA (indole acetic acid) and 10 mg/L BAP (benzene amino purine).

Bacopa monnieri = assay: Growth promoting activity using Bacopa sensor system; assay type: in vivo
Experimental: For testing the growth promoting effect of methanone-(3′,4′,5′-trimethoxy) phenyl, 1-naphthyl, 2-O-4″-ethyl but-2″-enoate, the compounds was dissolved in DMSO and added into the medium at 1.0 μg/ml. Only solvent was used as a control in the experiment for comparison. A fast propagating strain of Bacopa monnieri developed as a biosensor system through tissue culture at CIMAP (Khanuja et al., 2001, J Environa Pathol, Toxicol and Onco (JEPTO), 20:pp. 15 to 22) was used in the tests. The MS basal medium (Murashige and Skoog, 1962, Physiol. Planta. 15: pp. 473 to 497) supplemented with test compounds was used in the assays. Measured 0.5 to 1.0 ml medium was poured into 1.5 ml graduated microcentrifuge tubes. Twig cuttings of 2.5 cm were inoculated in 10 replicates for each treatment. These inoculated tubes were put into a half transparent desiccator allowing air passage through sterile cotton plugs fixed on opening vent. The tubes were placed such that the medium-containing portion of the tubes where roots would be initiating is inserted in to the holes of the stand made from a thermocol sheet. These desiccators were incubated at normal ambient temperature of 25 to 28° C. with 14 hours light and 10 hours dark cycle. The root initiation, shoot elongation, callus induction, shoot proliferation and wilting was recorded from day 2 to 14 every 24 hours.

## CCOC(=O)C=CCOc1ccc2ccccc2c1C(=O)c1cc(OC)c(OC)c(OC)c1 [Compound 1, methanone-(3′,4′,5′-trimethoxy) phenyl, 1-naphthyl 2-O-4″-ethyl but-2″-enoate]
Mentha arvensis; Medium A2 with IAA replaced: BAP 5.0, Compound 1 0.2, no roots
  Number of shoots observed after three weeks: 1–2 shoots shoots per explant
Mentha arvensis; Medium A3 with IAA replaced: BAP 10.0, Compound 1 2.0, single root in one replication
  Number of shoots observed after three weeks: 3–4 shoots shoots per explant
Mentha arvensis; within three weeks in medium A3
  shoots produced: 3 to 4 shoots
Bacopa monnieri; 1.0 μg/ml in MS basal medium, 2.5 cm twig cuttings, 10 replicates, recorded day 2 to 14, control 1.0
  Shoot Elongation: 1.6 cms
Bacopa monnieri; 1.0 μg/ml in MS basal medium, twig cuttings, day 2 to 14
  Browning Yellowing Death: Nil
Bacopa monnieri; 1.0 μg/ml in MS basal medium, twig cuttings, day 2 to 14, control 0.8
  Root Elongation: 0.8 cms
Bacopa monnieri; 1.0 μg/ml in MS basal medium, twig cuttings, day 2 to 14, control 2.0
  Branching: 2.0 nos
Bacopa monnieri; 1.0 μg/ml in MS basal medium, twig cuttings, day 2 to 14, control 2 + 2
  Number of Roots: 2 + 2 nos
Bacopa monnieri; 1.0 μg/ml in MS basal medium, twig cuttings, day 2 to 14, control 5.0
  Number of Leaves: 11.0 nos
Bacopa monnieri; within 15 days
  enhances the shoot elongation: about 1.6 cm
